# US20190292524A1, “METHODS FOR CANCER STEM CELL (CSC) EXPANSION” (TRANSGENEX NANOBIOTECH, INC., priority 2016, published 2019)
# Test system: MCF-7 cells
# Test: CD44+ CD24− CSC population in MCF-7 tumoroids by flow cytometry
# Format: cell-based, human
# Details: regular growth medium supplemented with 50 μM cobalt chloride, first-generation MCF-7 tumoroids, day 6
# Experimental: We first plated MCF-7 cells in regular growth medium, consisting of RPMI-1640 supplemented with 10% fetal bovine serum (FBS) and 1× penicillin-streptomycin. The cells were plated at ^˜7,000 cells per scaffold in a 96-well cell culture plate. Fresh medium was added on the second day post-seeding and on day 6 post-seeding, the tumoroids were visualized using NucBlue® dye. After confirming the presence of healthy looking tumoroids, they were detached from the scaffold and processed for single cell suspensions using accutase:citrate solution (1:1 ratio). The single cell suspension was then counted for viability and stained with human anti-CD44-APC-cy7 and anti-CD24-APC. DAPI was used to differentiate the live cells within the single cell population and the CD44^+ CD24^− cell population was determined from the live cells using flow cytometry.
# We first grew first-generation tumoroids, as described before. The first-generation tumoroids were then processed for single-cell suspensions and plated at ^˜8,000 cells per scaffold in a 96-well cell culture plate. […]
# Because hypoxia appears to be required for the maintenance of CSCs, we wanted to test this in our 3D model using cobalt chloride, a known inducer of hypoxia. […] DAPI was used to differentiate the live cells within the single-cell population and the CD44^+ CD24^− cell population was determined using flow cytometry. […]
compound,measurement,value
[Cl][Co][Cl] [cobalt chloride],change in percentage of CSCs,did not change the percentage of CSCs
